According to the supplement of paper PMC13380429:

Key:
Conditions in all cases: 72 h
Vero E6 [1] = test: drug sensitivity score (DSS) for viability; higher = more toxic; extreme values may be limits of the assay
HepG2 [2] = test: as above
Calu-3 [3] = test: as above
Caco-2 [4] = test: as above
U2OS [5] = test: as above
Vero E6 [6] = test: relative viability EC50 (midpoint between 100% and the lowest measured viability); higher = less toxic
Calu-3 [7] = test: as above
Caco-2 [8] = test: as above
U2OS [9] = test: as above
Vero E6 [10] = test: cell viability relative to DMSO; higher = less toxic
HepG2 [11] = test: as above
Calu-3 [12] = test: as above
Caco-2 [13] = test: as above
U2OS [14] = test: as above

## N=C(N)NN=C1C=CC(=NNC(N)=S)C=C1 [ambazone]
Vero E6 [1]
  drug sensitivity score: 0
HepG2 [2]
  drug sensitivity score: 3.9
Calu-3 [3]
  drug sensitivity score: 0
Caco-2 [4]
  drug sensitivity score: 0
U2OS [5]
  drug sensitivity score: 0
Vero E6 [6]
  relative viability EC50: > 10 µM
Calu-3 [7]
  relative viability EC50: > 10 µM
Caco-2 [8]
  relative viability EC50: > 10 µM
U2OS [9]
  relative viability EC50: > 10 µM
Vero E6 [10]; 1 nM
  cell viability: 90.9%
Vero E6 [10]; 10 nM
  cell viability: 95.1%
Vero E6 [10]; 100 nM
  cell viability: 102%
Vero E6 [10]; 1000 nM
  cell viability: 100%
Vero E6 [10]; 10000 nM
  cell viability: 103%
HepG2 [11]; 1 nM
  cell viability: 97.1%
HepG2 [11]; 10 nM
  cell viability: 95.3%
HepG2 [11]; 100 nM
  cell viability: 102%
HepG2 [11]; 1000 nM
  cell viability: 83.4%
HepG2 [11]; 10000 nM
  cell viability: 63.2%
Calu-3 [12]; 1 nM
  cell viability: 105%
Calu-3 [12]; 10 nM
  cell viability: 95.8%
Calu-3 [12]; 100 nM
  cell viability: 94.1%
Calu-3 [12]; 1000 nM
  cell viability: 98.2%
Calu-3 [12]; 10000 nM
  cell viability: 118%
Caco-2 [13]; 1 nM
  cell viability: 88.4%
Caco-2 [13]; 10 nM
  cell viability: 94.9%
Caco-2 [13]; 100 nM
  cell viability: 94.6%
Caco-2 [13]; 1000 nM
  cell viability: 91.2%
Caco-2 [13]; 10000 nM
  cell viability: 92.7%
U2OS [14]; 1 nM
  cell viability: 95%
U2OS [14]; 10 nM
  cell viability: 94.8%
U2OS [14]; 100 nM
  cell viability: 97.9%
U2OS [14]; 1000 nM
  cell viability: 99.3%
U2OS [14]; 10000 nM
  cell viability: 95%

## Cc1cc(O)c(C(=O)N[C@@H](C(=O)N[C@@H]2C(=O)N3C(C(=O)O)=C(CSc4nnnn4C)CS[C@H]23)c2ccc(O)cc2)cn1 [cefpiramide]
Vero E6 [1]
  drug sensitivity score: 0
Calu-3 [3]
  drug sensitivity score: 0
Caco-2 [4]
  drug sensitivity score: 0
U2OS [5]
  drug sensitivity score: 0
Vero E6 [6]
  relative viability EC50: > 10 µM
Calu-3 [7]
  relative viability EC50: > 10 µM
Caco-2 [8]
  relative viability EC50: > 10 µM
U2OS [9]
  relative viability EC50: > 10 µM
Vero E6 [10]; 1 nM
  cell viability: 101%
Vero E6 [10]; 10 nM
  cell viability: 94.1%
Vero E6 [10]; 100 nM
  cell viability: 100%
Vero E6 [10]; 1000 nM
  cell viability: 104%
Vero E6 [10]; 10000 nM
  cell viability: 96.3%
Calu-3 [12]; 1 nM
  cell viability: 99%
Calu-3 [12]; 10 nM
  cell viability: 102%
Calu-3 [12]; 100 nM
  cell viability: 108%
Calu-3 [12]; 1000 nM
  cell viability: 106%
Calu-3 [12]; 10000 nM
  cell viability: 98%
Caco-2 [13]; 1 nM
  cell viability: 94.2%
Caco-2 [13]; 10 nM
  cell viability: 106%
Caco-2 [13]; 100 nM
  cell viability: 116%
Caco-2 [13]; 1000 nM
  cell viability: 110%
Caco-2 [13]; 10000 nM
  cell viability: 95.3%
U2OS [14]; 1 nM
  cell viability: 93.4%
U2OS [14]; 10 nM
  cell viability: 98.3%
U2OS [14]; 100 nM
  cell viability: 96.5%
U2OS [14]; 1000 nM
  cell viability: 99.5%
U2OS [14]; 10000 nM
  cell viability: 101%

## CC(C)(C)NCC(O)c1cc(Cl)c(N)c(Cl)c1 (stereo not drawn) [clenbuterol]
Vero E6 [1]
  drug sensitivity score: 0
Calu-3 [3]
  drug sensitivity score: 0
Caco-2 [4]
  drug sensitivity score: 0
U2OS [5]
  drug sensitivity score: 0
Vero E6 [6]
  relative viability EC50: > 10 µM
Calu-3 [7]
  relative viability EC50: > 10 µM
Caco-2 [8]
  relative viability EC50: > 10 µM
U2OS [9]
  relative viability EC50: > 10 µM
Vero E6 [10]; 1 nM
  cell viability: 95.3%
Vero E6 [10]; 10 nM
  cell viability: 101%
Vero E6 [10]; 100 nM
  cell viability: 97.8%
Vero E6 [10]; 1000 nM
  cell viability: 104%
Vero E6 [10]; 10000 nM
  cell viability: 112%
Calu-3 [12]; 1 nM
  cell viability: 108%
Calu-3 [12]; 10 nM
  cell viability: 85.1%
Calu-3 [12]; 100 nM
  cell viability: 100%
Calu-3 [12]; 1000 nM
  cell viability: 93.7%
Calu-3 [12]; 10000 nM
  cell viability: 97.4%
Caco-2 [13]; 1 nM
  cell viability: 93.7%
Caco-2 [13]; 10 nM
  cell viability: 89.9%
Caco-2 [13]; 100 nM
  cell viability: 103%
Caco-2 [13]; 1000 nM
  cell viability: 90.8%
Caco-2 [13]; 10000 nM
  cell viability: 117%
U2OS [14]; 1 nM
  cell viability: 97.6%
U2OS [14]; 10 nM
  cell viability: 95%
U2OS [14]; 100 nM
  cell viability: 105%
U2OS [14]; 1000 nM
  cell viability: 98.2%
U2OS [14]; 10000 nM
  cell viability: 96.9%

## Clc1cccc(Cl)c1NC1=NCCN1 [clonidine]
Vero E6 [1]
  drug sensitivity score: 0
Calu-3 [3]
  drug sensitivity score: 2.3
Caco-2 [4]
  drug sensitivity score: 0
U2OS [5]
  drug sensitivity score: 0
Vero E6 [6]
  relative viability EC50: > 10 µM
Calu-3 [7]
  relative viability EC50: > 10 µM
Caco-2 [8]
  relative viability EC50: > 10 µM
U2OS [9]
  relative viability EC50: > 10 µM
Vero E6 [10]; 1 nM
  cell viability: 95.6%
Vero E6 [10]; 10 nM
  cell viability: 101%
Vero E6 [10]; 100 nM
  cell viability: 102%
Vero E6 [10]; 1000 nM
  cell viability: 99.3%
Vero E6 [10]; 10000 nM
  cell viability: 95.2%
Calu-3 [12]; 1 nM
  cell viability: 98.4%
Calu-3 [12]; 10 nM
  cell viability: 87.9%
Calu-3 [12]; 100 nM
  cell viability: 90.4%
Calu-3 [12]; 1000 nM
  cell viability: 87%
Calu-3 [12]; 10000 nM
  cell viability: 88.8%
Caco-2 [13]; 1 nM
  cell viability: 95.3%
Caco-2 [13]; 10 nM
  cell viability: 95.6%
Caco-2 [13]; 100 nM
  cell viability: 96.1%
Caco-2 [13]; 1000 nM
  cell viability: 84.1%
Caco-2 [13]; 10000 nM
  cell viability: 94%
U2OS [14]; 1 nM
  cell viability: 103%
U2OS [14]; 10 nM
  cell viability: 103%
U2OS [14]; 100 nM
  cell viability: 95.9%
U2OS [14]; 1000 nM
  cell viability: 101%
U2OS [14]; 10000 nM
  cell viability: 98.5%
